{"source": "patent US11638745B2", "about": "“Method to improve neurologic outcomes in temperature managed patients” (University of Pittsburgh—Of the Commonwealth System of …, priority 2015, dated 2023)", "key": {"RBM3 [1]": {"system": "RBM3", "assay": "RBM3 protein levels by Western blot in drug-treated primary cortical neurons at 37° C. or 36° C.", "format": "cell-based, rat", "details": "for RBM3 levels: 24 h treatment; for RBM3 protein expression: DIV7 neurons cultured at 37° C., 24 h treatment with increasing dose", "protocol": "Primary Cortical Neuron Culture. Embryos (mixed gender) were isolated from timed pregnant (E16-17) Sprague Dawley rats. Neuron cultures were performed as previously described (Jackson TC, et al. (2013) Pharmacological inhibition of pleckstrin homology domain leucine-rich repeat protein phosphatase is neuroprotective: differential effects on astrocytes. J Pharmacol Exp Ther 347:516-528). Cortices were dissected in ice-cold Hanks balanced salt solution (HBSS; Life Technologies, Grand Island, N.Y., USA) containing sodium bicarbonate (SIGMA), penicillin-streptomycin (Life Technologies), and 4-(2-hydroxyethyl)-1-piperazineethanesulfonic acid (HEPES; Life Technologies). Brain tissues were dissected under a Leica M651 light microscope (Buffalo Grove, Ill., USA), and placed in a 1.5 mL tube containing ˜1 mL prepared HBSS. Tissues were minced and transferred to a 15 mL conical tube. Cells were spun 5 min/200 g/4° C. Supernatant was aspirated, cells resuspended in 2 mL trypsin solution, and incubated 8 min at 37° C. with gentle mixing. Trypsin activity was quenched in 10 mL Neurobasal/B27 (Life Technologies) containing 10% fetal bovine serum (FBS; Thermo Fisher Scientific, Pittsburgh, Pa., USA). Cells were transferred into a new 15 mL conical tube and spun 5 min/200 g/4° C. Supernatant was replaced with 1.5 mL trituration media. Cells were dissociated by 10 passages through a fire-polished glass Pasteur pipette. The cell pellet was resuspended in plating media warmed to 37° C. (Neurobasal Media/B27 supplement prepared+25 μM L-Glutamic Acid+Pen-Strep). Cell number was quantified by automatic counting on a Cellometer (Nexcelom Bioscience, Lawrence, Mass., USA). Cells were seeded onto 6-well culture plates coated with poly-D-lysine (density ˜1.2-1.5×10^6/well). Cultures were maintained by half media replacement every ˜3-4 days in vitro (DIV). The mitotic inhibitor cytosine β-D-arabinofuranoside hydrochloride (ARA-C; 4 μM final concentration) was added in study 1 experiment (e.g. DIV10-11 cultures) to ensure purity of neuronal biochemistry for initial assessment of temperature treatments. Mitotic inhibitors at low levels are non-toxic but still potentially represent a mild stressor (though necessary to guarantee neuron purity) (Ahlemeyer B, et al., (2003) Cytosine arabinofuranoside-induced activation of astrocytes increases the susceptibility of neurons to glutamate due to the release of soluble factors. Neurochem Int 42:567-581). Results of temperature treatments were confirmed in younger DIV6 neurons in the absence of ARA-C (neuron enriched cultures; >90% neurons). Astrocytes were allowed to proliferate in aged cultures, which were not treated with ARA-C. It was observed that astrocytes are necessary for long-term survival of neuron cultures (i.e. DIV26 mature neuron cultures).\nHypothermia Protocols: Neurons were maintained in a 37° C. (normothermic) incubator. Before start of hypothermia, two identical incubators of the same make/model with humidity of ˜95% (all in the same room) were programmed to 36° C. and 33° C. Incubators were allowed a minimum of 48 h equilibration time prior to starting hypothermic experiments. In some experiments, as an additional control, a thermometer was placed inside hypothermic incubators as a secondary gauge of temperature. Temperature as assessed by that approach was independently confirmed to never be under target temperature and fluctuate by no more than ˜0.5° C. On DIV of interest, culture plates were assigned to one of the three experimental temperatures for 24 or 48 h.\nDrug Treatments: Drugs were prepared in DMSO or PBS (i.e. for FGF21). All drugs were diluted in conditioned culture media and applied for 24 h. Controls received equal amounts of DMSO/PBS without drugs. Primary neurons were harvested for biochemistry at key time points. RBM3 and CIRBP levels were measured by Western blot. Investigators were not blinded to temperature treatment groups.\nWestern Blot. […]"}, "[2]": {"details": "mammals; cited from earlier work"}, "[3]": {"details": "used to chemically lower core body temperature; cited from earlier work"}, "[4]": {"system": "piglet model of perinatal ischemic brain injury", "details": "hypothermia 33.5° C.; cited from earlier work"}, "RBM3 [5]": {"system": "RBM3", "assay": "RBM3 protein levels by Western blot in drug-treated primary cortical neurons at 37° C. or 36° C.", "format": "cell-based, rat", "details": "mature DIV26 neurons, 48 h at 36° C., drug combinations; melatonin 100 μM, T090 1 μM"}, "RBM3 mRNA": {"system": "RBM3 mRNA", "details": "mouse liver, microarray; cited from earlier work"}, "AKT/ERK": {"system": "AKT/ERK", "assay": "AKT/ERK phosphorylation by Western blot in FGF21-treated neurons", "format": "cell-based, rat", "details": "neurons at 37° C., 24 h later", "protocol": "Primary Cortical Neuron Culture. Embryos (mixed gender) were isolated from timed pregnant (E16-17) Sprague Dawley rats. Neuron cultures were performed as previously described (Jackson TC, et al. (2013) Pharmacological inhibition of pleckstrin homology domain leucine-rich repeat protein phosphatase is neuroprotective: differential effects on astrocytes. J Pharmacol Exp Ther 347:516-528). Cortices were dissected in ice-cold Hanks balanced salt solution (HBSS; Life Technologies, Grand Island, N.Y., USA) containing sodium bicarbonate (SIGMA), penicillin-streptomycin (Life Technologies), and 4-(2-hydroxyethyl)-1-piperazineethanesulfonic acid (HEPES; Life Technologies). Brain tissues were dissected under a Leica M651 light microscope (Buffalo Grove, Ill., USA), and placed in a 1.5 mL tube containing ˜1 mL prepared HBSS. Tissues were minced and transferred to a 15 mL conical tube. Cells were spun 5 min/200 g/4° C. Supernatant was aspirated, cells resuspended in 2 mL trypsin solution, and incubated 8 min at 37° C. with gentle mixing. […] Cell number was quantified by automatic counting on a Cellometer (Nexcelom Bioscience, Lawrence, Mass., USA). […]\nDrug Treatments: Drugs were prepared in DMSO or PBS (i.e. for FGF21). […] RBM3 and CIRBP levels were measured by Western blot. […]\nWestern Blot. […] Protein concentration was determined using the BCA assay (Thermo Scientific-PIERCE). […]"}, "PND17 rats given CCI": {"system": "PND17 rats given CCI", "assay": "PND17 CCI with TH/TTM ± FGF21 (MWM behavior, cell death histology)", "format": "in vivo, rat", "details": "1 mg/kg FGF21 IV at start and end of TH/TTM", "protocol": "TTM and TH. PND17 and 12 wk adult Sprague Dawley rats receive external cooling. Endogenous RBM3/β-Klotho levels is compared in male and female rats. The TTM group is cooled to 36° C. within ˜5 min then maintained to target temperature for 7 h: 25 min. The TH group is cooled to 33° C. over ˜1 h then to target temperature for 3 h: 15 min then rewarmed at a rate of 1° C./hr. Time spent<37° C. is equal in all groups (8 h: 30 mins). FIGS. 11A, 11B, 12A, and 12B illustrate exemplary protocols for these groups.\nPND17 CCI. Rats are given CCI in Aim 271, 72. Isoflurane anesthetized ˜35 g PND17 rats are craniotomized at the left parietal cortex and injured by pneumatic impactor (velocity, 4 m/s; depth, 2.5 mm). Randomization is by (A) temperature (37° C., 36° C., 33° C.), and (B)±CCI±1 mg/kg FGF21 or PBS vehicle. Two bolus IV injections of drug will be given—at the start and end of TH/TTM. Technicians are blind to treatments.\nMWM Behavior. Rats are given MWM testing 73, 74. […] Motor skill is assessed measuring swim speed proving cognitive performance is not confounded by motor deficits.\nCell Death. […] Surviving CA1/CA3 cells are counted in H & E stained brain sections 7 d post-injury by unbiased stereology. 21 d contusion volume is measured after MWM in separate rats […]"}, "[6]": {"details": "young DIV6 neurons at 37° C., same concentrations"}, "[7]": {"details": "young DIV6 neurons cooled to 36° C., 5 nM FGF21, 100 μM melatonin, 1 μM T090, 5 μM SRT1720, 1 μM AZD1080"}}, "note": "Entries after “also recorded” stand apart in the source; their conditions may differ.", "data": [{"molecule": "O=C(Nc1ccccc1-c1cn2c(CN3CCNCC3)csc2n1)c1cnc2ccccc2n1", "note": "[SRT1720]", "values": [{"measurement": "RBM3 levels", "setting": "RBM3 [1]; [6]", "result": "Neither SRT1720 (Sirtuin antagonist) nor AZD1080 (GSK-3β antagonist) increased RBM3 levels; also recorded: did not affect RBM3 levels"}, {"measurement": "RBM3 levels", "setting": "RBM3 [1]; [7]", "result": "Neither SRT1720 (Sirtuin antagonist) nor AZD1080 (GSK-3β antagonist) increased RBM3 levels; also recorded: did not affect RBM3 levels"}]}, {"molecule": "Nc1ncnc2c1ncn2[C@@H]1O[C@H](COP(=O)(O)O)[C@@H](O)[C@H]1O", "note": "[5-AMP, adenosine monophosphate]", "values": [{"measurement": "body temperature", "setting": "[2]", "result": "chemically induce hypothermia"}, {"measurement": "side effects", "setting": "[3]", "result": "profound hypotension and hyperglycemia"}]}, {"molecule": "N#Cc1ccc2[nH]c(O)c(-c3ccc(CN4CCOCC4)cn3)c2c1", "note": "[AZD1080]", "values": [{"measurement": "RBM3 levels", "setting": "RBM3 [1]; [6]", "result": "Neither SRT1720 (Sirtuin antagonist) nor AZD1080 (GSK-3β antagonist) increased RBM3 levels; also recorded: did not affect RBM3 levels"}, {"measurement": "RBM3 levels", "setting": "RBM3 [1]; [7]", "result": "Neither SRT1720 (Sirtuin antagonist) nor AZD1080 (GSK-3β antagonist) increased RBM3 levels; also recorded: did not affect RBM3 levels"}]}, {"molecule": "COc1ccc2[nH]cc(CCNC(C)=O)c2c1", "note": "[melatonin]", "values": [{"measurement": "RBM3 protein expression", "setting": "RBM3 [1]", "result": "minor effects on RBM3 protein expression"}, {"measurement": "RBM3 levels", "setting": "RBM3 [1]; [6]", "result": "failed to do so"}, {"measurement": "RBM3 levels", "setting": "RBM3 [1]; [7]", "result": "augmented RBM3 upregulation; also recorded: augmented RBM3 levels; also recorded: increased hypothermia-induced RBM3"}, {"measurement": "RBM3 levels", "setting": "RBM3 [1]; young DIV6 neurons cooled to 36° C., 5 nM FGF21, 100 μM melatonin, 1 μM T090, 5 μM SRT1720, 1 μM AZD1080, listed as Melatonin", "result": "augment RBM3 induction"}, {"measurement": "hypothermia induced neuroprotection", "setting": "[4]", "result": "augments hypothermia (33.5° C.) induced neuroprotection"}, {"measurement": "RBM3 induction", "setting": "RBM3 [5]", "result": "failed to do so"}]}, {"molecule": "O=S(=O)(c1ccccc1)N(CC(F)(F)F)c1ccc(C(O)(C(F)(F)F)C(F)(F)F)cc1", "note": "[T090]", "values": [{"measurement": "RBM3 protein expression", "setting": "RBM3 [1]", "result": "minor effects on RBM3 protein expression"}, {"measurement": "RBM3 levels", "setting": "RBM3 [1]; [6]", "result": "mildly increased RBM3 levels"}, {"measurement": "RBM3 levels", "setting": "RBM3 [1]; young DIV6 neurons at 37° C., same concentrations, listed as T0901317", "result": "mildly induced RBM3"}, {"measurement": "RBM3 levels", "setting": "RBM3 [1]; [7]", "result": "mildly increased RBM3 levels"}, {"measurement": "RBM3 levels", "setting": "RBM3 [1]; young DIV6 neurons cooled to 36° C., 5 nM FGF21, 100 μM melatonin, 1 μM T090, 5 μM SRT1720, 1 μM AZD1080, listed as T0901317", "result": "augmented RBM3 upregulation; also recorded: mildly induced RBM3"}, {"measurement": "RBM3 mRNA", "setting": "RBM3 mRNA", "result": "upregulate RBM3 mRNA"}, {"measurement": "RBM3 induction", "setting": "RBM3 [5]", "result": "failed to do so"}]}, {"molecule": "FGF21: Fibroblast growth factor 21 protein, purchased from R&D Systems (protein, UniProt Q9NSA1 29-209, looked up) Fibroblast growth factor 21: HPIPDSSPLLQFGGQVRQRYLYTDDAQQTEAHLEIREDGTVGGAADQSPESLLQLKALKPGVIQILGVKTSRFLCQRPDGALYGSLHFDPEACSFRELLLEDGYNVYQSEAHGLPLHLPGNKSPHRDPAPRGPARFLPLPGLPPALPEPPGILAPQPPDVGSSDPLSMVGPSQGRSPSYAS", "values": [{"measurement": "body temperature", "setting": "[2]", "result": "slight body temperature reduction"}, {"measurement": "RBM3 levels above baseline", "setting": "RBM3 [1]; DIV7 neurons cultured at 36° C., 24 h, dose effect", "result": "increased RBM3 above baseline in a bi-phasic manner"}, {"measurement": "RBM3 protein expression", "setting": "RBM3 [1]", "result": "minor effects on RBM3 protein expression"}, {"measurement": "RBM3 levels", "setting": "RBM3 [1]; [6]", "result": "failed to do so"}, {"measurement": "RBM3 levels", "setting": "RBM3 [1]; [7]", "result": "augment RBM3 induction; also recorded: induces RBM3; also recorded: augments RBM3; also recorded: augmented RBM3 upregulation; also recorded: augmented RBM3 levels; also recorded: increased hypothermia-induced RBM3"}, {"measurement": "AKT/ERK phosphorylation", "setting": "AKT/ERK", "result": "decreased"}, {"measurement": "TH/TTM induced neuroprotection after a CCI", "setting": "PND17 rats given CCI", "result": "augments TH/TTM induced neuroprotection"}, {"measurement": "RBM3 induction", "setting": "RBM3 [5]", "result": "failed to do so"}]}]}
